According to ChEMBL document CHEMBL1143836, “Predictors of mortality in patients with bloodstream infections caused by extended-spectrum-beta-lactamase-producing Enterobacteriaceae: importance of inadequate initial antimicrobial treatment” (2007):
Converted amounts (≈) assume the structure as drawn.

Legend:
Escherichia coli [1] = test: Antimicrobial activity against extended-spectrum-beta-lactamase producing Escherichia coli isolates; format: functional
Proteus mirabilis [2] = test: Antimicrobial activity against extended-spectrum-beta-lactamase producing Proteus mirabilis isolates; format: functional
Escherichia coli [3] = test: Antimicrobial activity against extended-spectrum-beta-lactamase producing Escherichia coli assessed as percent resistant isolates; format: functional
Klebsiella pneumoniae [4] = test: Antimicrobial activity against extended-spectrum-beta-lactamase producing Klebsiella pneumoniae assessed as percent susceptible isolates
Klebsiella pneumoniae [5] = test: Antimicrobial activity against extended-spectrum-beta-lactamase producing Klebsiella pneumoniae isolates; format: functional
Proteus mirabilis [6] = test: Antimicrobial activity against extended-spectrum-beta-lactamase producing Proteus mirabilis assessed as percent resistant isolates; format: functional

SMILES	MIC50 (Escherichia coli [1]) [µg/mL]	MIC90 (Escherichia coli [1]) [µg/mL]	MIC50 (Proteus mirabilis [2]) [µg/mL]	MIC90 (Proteus mirabilis [2]) [µg/mL]	Activity (Escherichia coli [3]) [%]	Activity (Klebsiella pneumoniae [4]) [%]	MIC50 (Klebsiella pneumoniae [5]) [µg/mL]	MIC90 (Klebsiella pneumoniae [5]) [µg/mL]	Activity (Proteus mirabilis [6]) [%]
C[C@@H](O)[C@H]1C(=O)N2C(C(=O)O)=C(S[C@@H]3CN[C@H](C(=O)N(C)C)C3)[C@H](C)[C@H]12 [MEROPENEM]	0.03 (≈ 0.0782 µM)	0.25 (≈ 0.652 µM)	0.03 (≈ 0.0782 µM)	0.25 (≈ 0.652 µM)	100	100	0.03 (≈ 0.0782 µM)	0.25 (≈ 0.652 µM)	100
O=C(O)c1cn(C2CC2)c2cc(N3CCNCC3)c(F)cc2c1=O [CIPROFLOXACIN]	≥ 16	≥ 16	≥ 16	≥ 16	8.6	46.5	2 (≈ 6.04 µM)	≥ 16	12.5
CO[C@@]1(NC(=O)Cc2cccs2)C(=O)N2C(C(=O)O)=C(COC(N)=O)CS[C@@H]21 [CEFOXITIN]	2 (≈ 4.68 µM)	≥ 64	2 (≈ 4.68 µM)	8 (≈ 18.7 µM)	71.1	74.1	2 (≈ 4.68 µM)	≥ 64	0
C[C@H]1COc2c(N3CCN(C)CC3)c(F)cc3c(=O)c(C(=O)O)cn1c23.C[C@H]1COc2c(N3CCN(C)CC3)c(F)cc3c(=O)c(C(=O)O)cn1c23.O [LEVOFLOXACIN]	≥ 32	≥ 32	≥ 32	≥ 32	8.6	48.2	2	≥ 32	12.5
CO/N=C(\C(=O)N[C@@H]1C(=O)N2C(C(=O)O)=C(COC(C)=O)CS[C@H]12)c1csc(N)n1 [CEFOTAXIME]	256 (≈ 562 µM)	256 (≈ 562 µM)	16 (≈ 35.1 µM)	256 (≈ 562 µM)	0	0	8 (≈ 17.6 µM)	256 (≈ 562 µM)	0
CO/N=C(\C(=O)N[C@@H]1C(=O)N2C(C(=O)[O-])=C(C[N+]3(C)CCCC3)CS[C@H]12)c1csc(N)n1 [CEFEPIME]	16 (≈ 33.3 µM)	256 (≈ 533 µM)	2 (≈ 4.16 µM)	32 (≈ 66.6 µM)	0	0	1 (≈ 2.08 µM)	256 (≈ 533 µM)	0
C[C@H]1[C@H](NC(=O)/C(=N\OC(C)(C)C(=O)O)c2csc(N)n2)C(=O)N1S(=O)(=O)O (stereo in doubt) [AZTREONAM]	256 (≈ 588 µM)	256 (≈ 588 µM)	0.25 (≈ 0.574 µM)	1 (≈ 2.3 µM)	–	0	256 (≈ 588 µM)	256 (≈ 588 µM)	0
CC(C)(O/N=C(\C(=O)N[C@@H]1C(=O)N2C(C(=O)[O-])=C(C[n+]3ccccc3)CS[C@H]12)c1csc(N)n1)C(=O)O [CEFTAZIDIME]	256 (≈ 468 µM)	256 (≈ 468 µM)	4 (≈ 7.32 µM)	16 (≈ 29.3 µM)	0	0	256 (≈ 468 µM)	256 (≈ 468 µM)	0
NCC[C@H](O)C(=O)N[C@@H]1C[C@H](N)[C@@H](O[C@H]2O[C@H](CN)[C@@H](O)[C@H](O)[C@H]2O)[C@H](O)[C@H]1O[C@H]1O[C@H](CO)[C@@H](O)[C@H](N)[C@H]1O [AMIKACIN]	2 (≈ 3.42 µM)	8 (≈ 13.7 µM)	2 (≈ 3.42 µM)	4 (≈ 6.83 µM)	98.1	91.4	2 (≈ 3.42 µM)	16 (≈ 27.3 µM)	100
C[C@@H](O)[C@H]1C(=O)N2C(C(=O)O)=C(SCCNC=N)C[C@H]12 [IMIPENEM ANHYDROUS]	–	–	1 (≈ 3.34 µM)	4 (≈ 13.4 µM)	100	100	0.25 (≈ 0.835 µM)	0.25 (≈ 0.835 µM)	100
